These are literature values, as cited in patent US20230116647A1 (Bausch Health Ireland Limited, priority 2020, published 2023).

The test system of data set [1] is Minimal Hepatic Encephalopathy. The settings on record: cited from earlier work.
Another data set has as its system Hepatic Encephalopathy. The note with it: mouse, in vivo; cited from earlier work.
A further data set relates to NASH. The settings on record: after 6 months of therapy; all P<0.05; cited from earlier work.
The subject of data set [2] is proteoglycan (PG)-induced ankylosing spondylitis. The settings on record: administered for 4 consecutive weeks; cited from earlier work.
In data set [3] the test system is species of Staphylococcus, Streptococcus, Enterococcus, and Enterobacteriaceae. The settings on record: cited from earlier work.
A further data set has as its system visceral hyperalgesia. The settings on record: rat, in vivo; cited from earlier work.

Regarding `CO[C@H]1/C=C/O[C@@]2(C)Oc3c(C)c(O)c4c(O)c(c5c(nc6cc(C)ccn65)c4c3C2=O)NC(=O)/C(C)=C\C=C\[C@H](C)[C@H](O)[C@@H](C)[C@@H](O)[C@@H](C)[C@H](OC(C)=O)[C@@H]1C` [rifaximin, Rifaximin], the “responders in whom all alterations of the immune system were normalized” value in data set [1] (human, in vivo) is on record as 59%. Moreover, the “effect on alterations of the immune system in non-responders” value in data set [1] (non-responders) was “normalizes only IL-6, CCL20, and differentiation of T lymphocytes to Th22”. Also, in the data set on Hepatic Encephalopathy, the “microbiota function (endotoxin, deconjugation and formation of secondary bile acids)” value was “favorably impacted”; the “systemic inflammation (serum IL-1β, IL-6), intestinal barrier, microbiota composition and function” value is reported as “improved”. Further, in the data set with NASH, the “homeostatic model assessment, ALT, AST, γ-glutamyl transferase, endotoxin, toll-like receptor-4, IL-6, TNF-α, CK-18, NAFLD-liver fat score” value is given as “significant reduction”. Besides, in data set [2], the “inflammatory factors, such as TNF-α, IL-6, IL-17A, and IL-23” value is given as “down-regulation”; the “severity of ankylosing spondylitis” value was “significantly reduced”. Further, the “in vitro activity against bacteria” value in data set [3] is given as “active”. In the data set with visceral hyperalgesia, the “mucosal inflammation, measured by levels of IL-17, IL-6 and TNF-α” value is “decreased”; the “overall quantity of bacteria in the ileum” value was “decreased”.
In the case of neomycin, in the data set with visceral hyperalgesia, the “elevation in IL-17, IL-6, or TNF-α” value is reported as “did not prevent” and the visceral pain entry is reported as “did not decrease”.
